Data on 15 molecules can be found in patent US8697691B2, “Alkyl 3-((2-amidoethyl)amino)-8-azabicyclo[3.2.1]octane-8-carboxylate analogs as selective M1 agonists and methods of making and using same” (Vanderbilt University, priority 2009, dated 2014).

A word on the EC50: it is the concentration giving half of the maximal effect.

Each structure is given as a SMILES string. Read-outs that look alike come from different tables or passages of the source.

The assay deals with T1, human M1 receptor (Homo sapiens, UniProt P11229).
T1 construct: host or cells: CHO-K1
T1 sequence (P11229 1-460): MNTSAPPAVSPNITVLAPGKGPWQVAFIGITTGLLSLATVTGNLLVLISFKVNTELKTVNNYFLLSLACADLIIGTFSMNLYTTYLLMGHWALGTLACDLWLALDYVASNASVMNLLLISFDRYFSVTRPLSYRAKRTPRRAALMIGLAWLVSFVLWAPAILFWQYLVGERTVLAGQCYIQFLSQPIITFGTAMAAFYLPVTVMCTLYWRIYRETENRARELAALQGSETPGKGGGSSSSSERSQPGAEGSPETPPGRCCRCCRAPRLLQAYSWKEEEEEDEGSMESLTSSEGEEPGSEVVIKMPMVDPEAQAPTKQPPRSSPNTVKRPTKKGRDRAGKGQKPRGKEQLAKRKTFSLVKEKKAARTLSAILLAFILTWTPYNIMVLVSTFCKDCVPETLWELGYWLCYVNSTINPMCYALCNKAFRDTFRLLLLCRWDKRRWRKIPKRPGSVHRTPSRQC
In words: Calcium mobilization assay, CHO-K1 cells stably expressing hM1 (high throughput, FDSS 6000). The class given is cell-based. The note with it: for Emax: CHO-K1, read-out: Efficacy (% Max ACh). The text has this: Chinese hamster ovary (CHO-K1) cells stably expressing rat (r)M1 were purchased from the American Type Culture Collection and cultured according to their indicated protocol. CHO cells stably expressing human (h)M2, hM3, and hM5 were described previously (Levey et al., 1991); hM1 and hM4 cDNAs were purchased from Missouri S&T cDNA Resource; rM4 cDNA was provided by T. I. Bonner (National Institutes of Health, Bethesda, Md.). hM1, hM4, and rM4 cDNAs were used to stably transfect CHO-K1 cells purchased from the American Type Culture Collection using Lipofectamine2000. To make stable hM2, hM4 and rM4 cell lines for use in calcium mobilization assays, these cells also were stably transfected with a chimeric G-protein (Gqi5) (provided by B. R. Conklin, University of California, San Francisco) using Lipofectamine 2000. rM1, hM3, and hM5 cells were grown in Ham's F-12 medium containing 10% heat-inactivated fetal bovine serum (FBS), 20 mM HEPES, and 50 μg/mL G418 sulfate. hM2-Gqi5 and hM4-Gqi5 cells were grown in the same medium also containing 500 μg/mL Hygromycin B. Stable rM4-Gqi5 cells were grown in DMEM containing 10% heat-inactivated FBS, 20 mM HEPES, 400 μg/mL G418 sulfate, and 500 μg/mL Hygromycin B. The rat M1 Y381A orthosteric mutant receptor cDNA was generated using the Quik-Change site-directed mutagenesis kit (Stratagene) and verified by sequencing. CHO-K1 cells were stably transfected with this cDNA using Lipofectamine2000 and screened for expression based on calcium mobilization in response to the allosteric M1 agonist N-desmethylclozapine.
For high throughput measurement of agonist-evoked increases in intracellular calcium, CHO-K1 cells stably expressing muscarinic receptors were plated in growth medium lacking G418 and hygromycin at 15,000 cells/20 μL/well (hM1, hM2-Gqi5, hM3, hM4-Gq15, and hM5) in Greiner 384-well black-walled, tissue culture (TC)-treated, clear-bottom plates (VWR). Cells were incubated overnight at 37° C. and 5% CO2. The next day, cells were washed using an ELX 405 (BioTek) with three washes (50 μL) of assay buffer then aspirated to 15 μL. Next, 5 μL of 8 μM Fluo-4/acetoxymethyl ester (Invitrogen, Carlsbad, Calif.) prepared as a 2.3 mM stock in DMSO and mixed in a 1:1 ratio with 10% (w/v) Pluronic F-127 and diluted in assay buffer was added to the wells and the cell plates were incubated for 45 min at 37° C. and 5% CO2. Dye was removed by washing with the ELX 405 (three 50 μL washes of assay buffer) then aspirated to 20 μL. Agonist and compound master plates were formatted in an 11 point CRC format (1:3 dilutions) in 100% DMSO with a starting concentration of 10 mM using the BRAVO liquid handler (Agilent). Test compound CRCs were then transferred to daughter plates ([…]) using the Echo acoustic plate reformatter (Labcyte, Sunnyvale, Calif.) and then diluted into assay buffer (40 μL) to a 2× stock using a Thermo Fisher Combi (Thermo Fisher Scientific, Waltham, Mass.). Calcium flux was measured using the Functional Drug Screening System (FDSS) 6000 (Hamamatsu Corporation, Tokyo, Japan) as an increase in the fluorescent static ratio. 20 μL of Agonist Compounds were applied to cells using the automated system of the FDSS 6000 at 4 s into the 300 s protocol and the data were collected at 1 Hz. Concentration-response curves were generated using a four-parameter logistical equation in XLfit curve fitting software (IDBS, Bridgewater, N.J.) for Excel (Microsoft, Redmond, Wash.) or Prism (GraphPad Software, Inc., San Diego, Calif.).

[1] abbreviates: human M1, agonist-evoked calcium mobilization in CHO-K1 cells, read-out: Potency (EC50).

`CCOC(=O)N1[C@@H]2CC[C@H]1C[C@H](NCCNC(=O)N1CCCCC1)C2` [Example 28, ethyl 3((3-exo)-(2-(piperidine-1-carboxamido)ethyl)amino)-8-azabicyclo[3.2.1]octane-8-carboxylate]: the Emax is 46%. In addition, the EC50 under setting [1] amounted to 700 nM.
Consider `COC(=O)N1C2CCC1CC(NCCNC(=O)c1ccccc1)C2` (stereo not drawn) [Example 29, methyl 3-((3-exo)-(2-benzamidoethyl)amino)-8-azabicyclo[3.2.1]octane-8-carboxylate], for which the Emax came to 7%.
Same read-out and setting: for `C=CCOC(=O)N1[C@@H]2CC[C@H]1C[C@H](NCCNC(=O)c1ccccc1)C2` [Example 30, allyl 3-((3-exo)-(2-benzamidoethyl)amino)-8-azabicyclo[3.2.1]octane-8-carboxylate] the value was 29%.
For the molecule `CCOC(=O)N1[C@@H]2CC[C@H]1C[C@H](NCCNC(=O)c1ccccc1C)C2` [Example 31, ethyl 3-((3-exo)-(2-(2-methylbenzamido)ethyl)-amino)-8-azabicyclo[3.2.1]octane-8-carboxylate], the EC50 turned out to be 2500 nM and the Emax came out at 38%.
Take `CCOC(=O)N1C2CCC1CC(NCCNC(=O)N1[C@H](C)CCC[C@@H]1C)C2` (stereo partly drawn) [Example 32]: the Emax stood at 26%.
With `CCOC(=O)N1[C@@H]2CC[C@H]1C[C@H](NCCNC(=O)c1ccc(F)cc1)C2` [Example 33, ethyl 3-((3-exo)-(2-(4-fluorobenzamido)ethyl)-amino)-8-azabicyclo[3.2.1]octane-8-carboxylate], the Emax was determined as 48%. Besides, the EC50 under setting [1] turned out to be 1700 nM.
Taken in the same sequence, the figures for `CCOC(=O)N1[C@@H]2CC[C@H]1C[C@H](NCCNC(=O)C1CCCCC1)C2` [Example 34, ethyl 3-((3-exo)-(2-(cyclohexanecarboxamido)-ethyl)amino)-8-azabicyclo[3.2.1]octane-8-carboxylate] were 25% and 3200 nM.
Taken in the same sequence, the figures for `CCOC(=O)N1[C@@H]2CC[C@H]1C[C@H](NCCNC(=O)c1cccc(Cl)c1)C2` [Example 35, ethyl 3-((3-exo)-(2-(3-chlorobenzamido)ethyl)-amino)-8-azabicyclo[3.2.1]octane-8-carboxylate] were 57% and 490 nM.
For `CCOC(=O)N1[C@@H]2CC[C@H]1C[C@H](NCCNC(=O)c1cc(F)cc(F)c1)C2` [Example 36, ethyl 3-((3-exo)-(2-(3,5-difluorobenzamido)ethyl)-amino)-8-azabicyclo[3.2.1]octane-8-carboxylate], the Emax came out at 37%. Also, under setting [1], the EC50 came to 2600 nM.
For the molecule `CC(C)OC(=O)N1C2CCC1CC(NCCNC(=O)c1ccccc1)C2` (stereo not drawn) [Example 37, isopropyl 3-((3-exo)-(2-benzamidoethyl)amino)-8-azabicyclo[3.2.1]octane-8-carboxylate], the Emax was 7%.
Consider `CCOC(=O)N1[C@@H]2CC[C@H]1C[C@H](NCCNC(=O)N1CCOCC1)C2` [Example 38, ethyl 3-((3-exo)-(2-(morpholine-4-carboxamido)ethyl)-amino)-8-azabicyclo[3.2.1]octane-8-carboxylate], for which the Emax is 37%. Moreover, the EC50 under setting [1] was 3600 nM.
With `CCOC(=O)N1[C@@H]2CC[C@H]1C[C@H](NCCNC(=O)c1ccc(F)c(F)c1)C2` [Example 39, ethyl 3-((3-exo)-(2-(3,4-difluorobenzamido)ethyl)-amino)-8-azabicyclo[3.2.1]octane-8-carboxylate], the Emax was 46%. In addition, the EC50 under setting [1] worked out at 1400 nM.
Take `CCOC(=O)N1[C@@H]2CC[C@H]1C[C@H](NCCNC(=O)c1cccs1)C2` [Example 40, ethyl 3-((3-exo)-(2-(thiophene-2-carboxamido)ethyl)-amino)-8-azabicyclo[3.2.1]octane-8-carboxylate]: the EC50 came out at 2100 nM and the Emax was 15%.
Turning to `CCOC(=O)N1C2CCC1CC(NCCNC(=O)c1cccc(OC)c1)C2` (stereo not drawn) [Example 41, ethyl 3-((3-exo)-(2-(3-methoxybenzamido)ethyl)-amino)-8-azabicyclo[3.2.1]octane-8-carboxylate], the Emax is 19%.
Take `CCOC(=O)N1[C@@H]2CC[C@H]1C[C@H](NCCNC(=O)c1ccccc1Cl)C2` [Example 42]: the Emax was found to be 25%.
